Measurements reported in ChEMBL document CHEMBL3739415, “Synthesis of functionalized new conjugates of batracylin with tuftsin/retro-tuftsin derivatives and their biological evaluation” (Eur J Med Chem, 2015).
Calls of active or inactive are those of the source. The calls are words filed in the database; no cut-off is given here. Non-standard residues stand in square brackets, D forms with d. Residues, ends and D or L forms follow the SMILES beside them. *: point of attachment. Batracylin(8-NH) = O=C1c2ccccc2C2=Nc3ccc(N*)cc3CN12; Arg(NO2) = N=C(NCCC[C@H](N)C(=O)O)N[N+](=O)[O-]

Key:
[1] = Cytotoxicity against human HL60 cells after 120 hrs by MTT assay; type: functional, cell-based; conditions: HL-60, 120 h
A549 [2] = test: Cytotoxicity against human A549 cells after 120 hrs by MTT assay; type: functional, cell-based; conditions: A549, 120 h
[3] = molecular target: T1, DNA topoisomerase 1 (Homo sapiens) (UniProt P11387); test: Inhibition of human topoisomerase-1-mediated relaxation of supercoiled plasmid pBR322 DNA at 1 to 100 uM after 30 mins by ethidium bromide staining
T1 sequence (whole entry): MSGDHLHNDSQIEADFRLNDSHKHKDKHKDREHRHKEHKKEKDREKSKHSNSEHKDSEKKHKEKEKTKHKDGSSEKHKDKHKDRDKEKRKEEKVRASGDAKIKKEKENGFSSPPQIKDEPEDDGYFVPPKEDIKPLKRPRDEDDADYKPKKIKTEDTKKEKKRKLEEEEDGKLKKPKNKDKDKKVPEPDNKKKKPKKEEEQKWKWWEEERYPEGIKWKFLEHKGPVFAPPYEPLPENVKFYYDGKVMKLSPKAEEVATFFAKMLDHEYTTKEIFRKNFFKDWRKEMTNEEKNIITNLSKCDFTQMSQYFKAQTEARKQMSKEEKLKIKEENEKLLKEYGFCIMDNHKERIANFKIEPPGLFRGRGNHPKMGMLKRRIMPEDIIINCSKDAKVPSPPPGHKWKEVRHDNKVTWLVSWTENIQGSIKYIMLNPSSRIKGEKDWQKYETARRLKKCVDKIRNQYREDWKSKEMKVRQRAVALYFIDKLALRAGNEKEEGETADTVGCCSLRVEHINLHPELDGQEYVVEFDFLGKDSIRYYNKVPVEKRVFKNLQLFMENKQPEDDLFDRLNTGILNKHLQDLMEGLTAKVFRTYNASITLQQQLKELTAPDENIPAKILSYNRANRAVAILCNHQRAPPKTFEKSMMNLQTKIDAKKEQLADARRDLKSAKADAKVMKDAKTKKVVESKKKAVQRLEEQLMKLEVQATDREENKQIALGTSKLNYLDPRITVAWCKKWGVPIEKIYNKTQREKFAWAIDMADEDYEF

[4] = molecular target: DNA topoisomerase 2-alpha (Homo sapiens) (UniProt P11388); test: Inhibition of human topoisomerase-2alpha-mediated relaxation of supercoiled plasmid pBR322 DNA after 30 mins by ethidium bromide staining
A549 [5] = test: Induction of apoptosis in human A549 cells assessed as change in nuclear and cellular morphology at IC90 up to 120 hrs using Hoechst-33342 staining by fluorescent microscope analysis; type: functional, cell-based
[6] = Cell cycle arrest in human HL60 cells assessed as abnormal mitotic figures at IC90 after 24 to 120 hrs using propidium iodide staining by flow cytometry analysis; type: functional, cell-based; conditions: HL-60
HL-60 [7] = test: Induction of apoptosis in human HL60 cells assessed as micronucleated cells at IC90 up to 120 hrs using Hoechst-33342 staining by fluorescent microscope analysis relative to BAT; type: functional, cell-based
A549 [8] = test: Induction of DNA damage in human A549 cells assessed as phosphorylation of H2AX histone at IC90 after 3 hrs by fluorescence microscopy; type: functional, cell-based
A549 [9] = test: Induction of apoptosis in human A549 cells assessed as increase of debris fraction at IC90 up to 120 hrs using Hoechst-33342 staining by fluorescent microscope analysis relative to BAT; type: functional
A549 [10] = test: Cell cycle arrest in human A549 cells assessed as accumulation at G2/M phase at IC90 after 120 hrs using propidium iodide staining by flow cytometry analysis; type: functional, cell-based
HL-60 [11] = test: Induction of apoptosis in human HL60 cells assessed as fraction of polyploid cells at IC90 up to 120 hrs using Hoechst-33342 staining by fluorescent microscope analysis relative to BAT; type: functional, cell-based
[12] = Cell cycle arrest in human HL60 cells assessed as accumulation at G2/M phase at IC90 after 24 to 120 hrs using propidium iodide staining by flow cytometry analysis; type: functional, cell-based; conditions: HL-60
A549 [13] = test: Cell cycle arrest in human A549 cells assessed as accumulation at G2/M phase at IC90 after 24 hrs using propidium iodide staining by flow cytometry analysis; type: functional, cell-based
HL-60 [14] = test: Induction of apoptosis in human HL60 cells assessed as increase of debris fraction at IC90 up to 120 hrs using Hoechst-33342 staining by fluorescent microscope analysis relative to BAT; type: functional, cell-based
A549 [15] = test: Ratio of BAT IC50 to compound IC50 for human A549 cells after 120 hrs by MTT assay; type: functional
HL-60 [16] = test: Ratio of BAT IC50 to compound IC50 for human HL60 cells after 120 hrs by MTT assay; type: functional
[17] = Cytotoxicity against human HCT116 cells after 120 hrs by MTT assay; type: functional, cell-based; conditions: HCT-116, 120 h
HT-29 = test: Cytotoxicity against human HT-29 cells after 120 hrs by MTT assay; type: functional, cell-based; conditions: HT-29, 120 h
MCF7 = test: Cytotoxicity against human MCF7 cells after 120 hrs by MTT assay; type: functional, cell-based; conditions: MCF7, 120 h
[18] = Cytotoxicity against mouse WEHI1640 cells after 120 hrs by MTT assay; type: functional, cell-based; conditions: WEHI1640, 120 h
L1210 = test: Cytotoxicity against mouse L1210 cells after 120 hrs by MTT assay; type: functional, cell-based; conditions: L1210, 120 h
[19] = Cytotoxicity against mouse NIH/3T3 cells after 120 hrs by MTT assay; type: functional, cell-based; conditions: NIH3T3, 120 h
P388 = test: Cytotoxicity against mouse P388 cells after 120 hrs by MTT assay; type: functional, cell-based; conditions: P388, 120 h
LNCaP = test: Cytotoxicity against human LNCAP cells after 120 hrs by MTT assay; type: functional, cell-based

Sequence of DNA topoisomerase 2-alpha (Homo sapiens) (P11388 whole entry): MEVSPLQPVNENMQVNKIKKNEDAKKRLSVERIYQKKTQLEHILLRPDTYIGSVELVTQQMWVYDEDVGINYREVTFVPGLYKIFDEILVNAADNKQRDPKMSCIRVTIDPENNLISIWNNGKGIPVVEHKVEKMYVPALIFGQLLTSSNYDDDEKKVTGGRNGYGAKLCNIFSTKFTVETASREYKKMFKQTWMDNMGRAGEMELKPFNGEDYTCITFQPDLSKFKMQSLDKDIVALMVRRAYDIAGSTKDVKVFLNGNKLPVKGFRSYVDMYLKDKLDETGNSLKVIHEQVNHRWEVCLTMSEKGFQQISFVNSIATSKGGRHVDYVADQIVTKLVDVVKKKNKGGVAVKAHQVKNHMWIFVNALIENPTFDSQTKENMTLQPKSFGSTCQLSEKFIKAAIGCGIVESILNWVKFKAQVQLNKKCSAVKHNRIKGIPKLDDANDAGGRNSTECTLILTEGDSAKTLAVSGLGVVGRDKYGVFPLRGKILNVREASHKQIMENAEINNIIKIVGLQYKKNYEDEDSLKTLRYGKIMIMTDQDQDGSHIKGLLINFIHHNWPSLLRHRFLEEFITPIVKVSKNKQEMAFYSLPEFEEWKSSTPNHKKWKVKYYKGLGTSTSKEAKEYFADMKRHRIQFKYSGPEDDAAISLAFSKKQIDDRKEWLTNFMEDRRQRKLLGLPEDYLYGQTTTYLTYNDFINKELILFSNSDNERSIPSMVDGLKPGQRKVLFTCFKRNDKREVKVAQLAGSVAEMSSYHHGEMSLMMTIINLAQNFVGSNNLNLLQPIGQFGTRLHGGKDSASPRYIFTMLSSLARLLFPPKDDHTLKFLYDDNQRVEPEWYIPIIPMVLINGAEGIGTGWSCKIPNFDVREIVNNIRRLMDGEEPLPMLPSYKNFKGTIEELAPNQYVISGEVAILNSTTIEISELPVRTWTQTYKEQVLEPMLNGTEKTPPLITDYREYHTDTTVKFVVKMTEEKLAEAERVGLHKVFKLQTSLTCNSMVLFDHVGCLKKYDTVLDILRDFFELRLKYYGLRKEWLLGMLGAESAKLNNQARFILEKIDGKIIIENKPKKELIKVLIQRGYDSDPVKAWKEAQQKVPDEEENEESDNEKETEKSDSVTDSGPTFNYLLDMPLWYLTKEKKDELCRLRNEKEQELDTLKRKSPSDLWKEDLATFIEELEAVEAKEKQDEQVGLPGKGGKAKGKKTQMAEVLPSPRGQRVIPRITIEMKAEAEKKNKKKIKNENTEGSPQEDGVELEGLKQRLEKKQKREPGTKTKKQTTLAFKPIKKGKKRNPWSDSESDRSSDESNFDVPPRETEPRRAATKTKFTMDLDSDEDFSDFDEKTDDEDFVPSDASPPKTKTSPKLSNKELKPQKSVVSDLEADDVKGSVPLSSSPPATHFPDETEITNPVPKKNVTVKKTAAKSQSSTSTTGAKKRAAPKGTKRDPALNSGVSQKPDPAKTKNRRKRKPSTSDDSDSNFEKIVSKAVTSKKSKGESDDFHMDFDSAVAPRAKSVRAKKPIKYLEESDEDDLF

## C[C@H](N)C(=O)NCCCC[C@H](NC(=O)[C@@H](N)[C@@H](C)O)C(=O)N1CCC[C@H]1C(=O)N[C@@H](CCCNC(=N)N[N+](=O)[O-])C(=O)Nc1ccc2c(c1)CN1C(=O)c3ccccc3C1=N2 (H-TK(Ala)P[Arg(NO2)]-{Batracylin(8-NH)})
[1]
  IC50: 19.6 µM
A549 [2]
  IC50: 5.9 µM

## C[C@@H](O)[C@H](N)C(=O)N[C@@H](CCCCNC(=O)CN)C(=O)N1CCC[C@H]1C(=O)N[C@@H](CCCNC(=N)N[N+](=O)[O-])C(=O)Nc1ccc2c(c1)CN1C(=O)c3ccccc3C1=N2 (H-TK(Gly)P[Arg(NO2)]-{Batracylin(8-NH)})
[1]
  IC50: > 100 µM
A549 [2]
  IC50: > 100 µM

## CC[C@H](C)[C@H](N)C(=O)NCCCC[C@H](NC(=O)[C@@H](N)[C@@H](C)O)C(=O)N1CCC[C@H]1C(=O)N[C@@H](CCCNC(=N)N[N+](=O)[O-])C(=O)Nc1ccc2c(c1)CN1C(=O)c3ccccc3C1=N2 (H-TK(Ile)P[Arg(NO2)]-{Batracylin(8-NH)})
[3]
  inhibition: inactive
[4]
  inhibition: Dose-dependent effect
[1]
  IC50: 15.4 µM
A549 [2]
  IC50: 17.4 µM

## CC(C)C[C@H](N)C(=O)NCCCC[C@H](NC(=O)[C@@H](N)[C@@H](C)O)C(=O)N1CCC[C@H]1C(=O)N[C@@H](CCCNC(=N)N[N+](=O)[O-])C(=O)Nc1ccc2c(c1)CN1C(=O)c3ccccc3C1=N2 (H-TK(Leu)P[Arg(NO2)]-{Batracylin(8-NH)})
[3]
  inhibition: inactive
[4]
  inhibition: Dose-dependent effect
[1]
  IC50: 83.7 µM
A549 [2]
  IC50: > 100 µM

## CC(C)[C@H](N)C(=O)NCCCC[C@H](NC(=O)[C@@H](N)[C@@H](C)O)C(=O)N1CCC[C@H]1C(=O)N[C@@H](CCCNC(=N)N[N+](=O)[O-])C(=O)Nc1ccc2c(c1)CN1C(=O)c3ccccc3C1=N2 (H-TK(Val)P[Arg(NO2)]-{Batracylin(8-NH)})
[1]
  IC50: > 100 µM
A549 [2]
  IC50: > 100 µM

## C[C@@H](O)[C@H](N)C(=O)N[C@@H](CCCCN)C(=O)N1CCC[C@H]1C(=O)N[C@@H](CCCNC(=N)N[N+](=O)[O-])C(=O)Nc1ccc2c(c1)CN1C(=O)c3ccccc3C1=N2 (H-TKP[Arg(NO2)]-{Batracylin(8-NH)})
A549 [5]
  Activity: inactive
[6]
  Activity: Active
HL-60 [7]
  Activity: Active
A549 [8]
  Activity: Active
A549 [9]
  fold change (FC): 3.5
A549 [10]
  Activity: Active
HL-60 [11]
  Activity: Active
[12]
  Activity: inactive
A549 [13]
  Activity: Active
[1]
  IC50: 77.3 µM
A549 [2]
  IC50: 52.8 µM
HL-60 [14]
  Activity: Active

## C[C@H](N)C(=O)NCCCC[C@H](NC(=O)[C@@H]1CCCN1C(=O)[C@@H](N)CCCNC(=N)N[N+](=O)[O-])C(=O)N[C@H](C(=O)Nc1ccc2c(c1)CN1C(=O)c3ccccc3C1=N2)[C@@H](C)O (H-[Arg(NO2)]PK(Ala)T-{Batracylin(8-NH)})
[1]
  IC50: 11.1 µM
A549 [2]
  IC50: 5.6 µM

## C[C@@H](O)[C@H](NC(=O)[C@H](CCCCNC(=O)CN)NC(=O)[C@@H]1CCCN1C(=O)[C@@H](N)CCCNC(=N)N[N+](=O)[O-])C(=O)Nc1ccc2c(c1)CN1C(=O)c3ccccc3C1=N2 (H-[Arg(NO2)]PK(Gly)T-{Batracylin(8-NH)})
[1]
  IC50: 28.7 µM
A549 [2]
  IC50: > 100 µM

## CC[C@H](C)[C@H](N)C(=O)NCCCC[C@H](NC(=O)[C@@H]1CCCN1C(=O)[C@@H](N)CCCNC(=N)N[N+](=O)[O-])C(=O)N[C@H](C(=O)Nc1ccc2c(c1)CN1C(=O)c3ccccc3C1=N2)[C@@H](C)O (H-[Arg(NO2)]PK(Ile)T-{Batracylin(8-NH)})
[3]
  inhibition: inactive
A549 [15]
  Ratio IC50: >=10
[4]
  inhibition: Dose-dependent effect
[1]
  IC50: 4.7 µM
A549 [2]
  IC50: 4.8 µM
HL-60 [16]
  Ratio IC50: >=10

## CC(C)C[C@H](N)C(=O)NCCCC[C@H](NC(=O)[C@@H]1CCCN1C(=O)[C@@H](N)CCCNC(=N)N[N+](=O)[O-])C(=O)N[C@H](C(=O)Nc1ccc2c(c1)CN1C(=O)c3ccccc3C1=N2)[C@@H](C)O (H-[Arg(NO2)]PK(Leu)T-{Batracylin(8-NH)})
A549 [5]
  Activity: inactive
[6]
  Activity: Active
HL-60 [7]
  Activity: Active
A549 [8]
  Activity: Active
A549 [10]
  Activity: Active
HL-60 [11]
  Activity: Active
[3]
  inhibition: inactive
[12]
  Activity: inactive
A549 [13]
  Activity: Active
A549 [15]
  Ratio IC50: >=10
[4]
  inhibition: Dose-dependent effect
[1]
  IC50: 5.3 µM
A549 [2]
  IC50: 4 µM
HL-60 [14]
  Activity: Active
HL-60 [16]
  Ratio IC50: >=10

## CC(C)[C@H](N)C(=O)NCCCC[C@H](NC(=O)[C@@H]1CCCN1C(=O)[C@@H](N)CCCNC(=N)N[N+](=O)[O-])C(=O)N[C@H](C(=O)Nc1ccc2c(c1)CN1C(=O)c3ccccc3C1=N2)[C@@H](C)O (H-[Arg(NO2)]PK(Val)T-{Batracylin(8-NH)})
[1]
  IC50: 11 µM
A549 [2]
  IC50: 13.1 µM

## C[C@@H](O)[C@H](NC(=O)[C@H](CCCCN)NC(=O)[C@@H]1CCCN1C(=O)[C@@H](N)CCCNC(=N)N[N+](=O)[O-])C(=O)Nc1ccc2c(c1)CN1C(=O)c3ccccc3C1=N2 (H-[Arg(NO2)]PKT-{Batracylin(8-NH)})
A549 [15]
  Ratio IC50: 5
[1]
  IC50: 30.8 µM
A549 [2]
  IC50: 8.7 µM
HL-60 [16]
  Ratio IC50: 2

## Nc1ccc2c(c1)CN1C(=O)c3ccccc3C1=N2 [DANIQUIDONE]
A549 [5]
  Activity: inactive
[6]
  Activity: Active
HL-60 [7]
  Activity: Active
A549 [8]
  Activity: Active
[17]
  IC50: 88.7 µM
A549 [10]
  Activity: Active
HT-29
  IC50: 64.3 µM
HL-60 [11]
  Activity: Active
MCF7
  IC50: > 100 µM
[3]
  inhibition: inactive
[12]
  Activity: inactive
A549 [13]
  Activity: Active
[18]
  IC50: 58.4 µM
L1210
  IC50: > 100 µM
[4]
  inhibition: Dose-dependent effect
[19]
  IC50: 69.9 µM
P388
  IC50: > 100 µM
[1]
  IC50: 66.6 µM
A549 [2]
  IC50: 46.3 µM
HL-60 [14]
  Activity: Active
LNCaP
  IC50: 90.2 µM
